Test results reported in paper PMC8286840, “Identifying SARS-CoV-2 antiviral compounds by screening for small molecule inhibitors of Nsp3 papain-like protease” (Biochemical Journal, 2021).
Where a name gives a salt, the structure may show the parent alone. Read-outs that look alike come from different tables or passages of the source.

Tests used:
[1] = biological target: T1, SARS-CoV-2 PLpro (nsp3 1564–1878) (Severe acute respiratory syndrome coronavirus 2, UniProt P0DTD1); assay: biochemical; design: FRET-quenched peptide (Pro3) cleavage by PLpro, 10 min pre-incubation, slope over 20 min, normalised to no-compound control; settings: read-out: % of control remaining
[2] = biological target: T1, SARS-CoV-2 PLpro (nsp3 1564–1878); assay: biochemical; design: FRET-quenched peptide (Pro3) cleavage by PLpro, 10 min pre-incubation, slope over 20 min, normalised to no-compound control; settings: read-out: % of control remaining; remark: listed apart in the source

Cc1nc2n(c(=O)c1CCN1CCC(c3noc4cc(F)ccc34)CC1)CCCC2O (stereo not shown) [Paliperidone]
remaining activity at 3.75 µM ([1]; Well no.=8197, high concentration screen): 99.6%
remaining activity at 1.25 µM ([2]; Well no.=8197, low concentration screen): 109%

COc1ccc2cc([C@H](C)C(=O)O)ccc2c1 [Naproxen]
remaining activity at 3.75 µM ([1]; Well no.=1869, high concentration screen): 87.1%
remaining activity at 1.25 µM ([2]; Well no.=1869, low concentration screen): 90.4%

Clc1ccc(CCCOCCCN2CCCCC2)cc1 [Pitolisant (hydrochloride)]
remaining activity at 3.75 µM ([1]; Well no.=6225, high concentration screen): 101%
remaining activity at 1.25 µM ([2]; Well no.=6225, low concentration screen): 100%

CCCCc1c(-c2ccc(O)cc2)[nH]c2nccnc12 [Aloisine A, RP107]
remaining activity at 3.75 µM ([1]; Well no.=2318, high concentration screen): 95.3%
remaining activity at 1.25 µM ([2]; Well no.=2318, low concentration screen): 97.4%

C[C@H](N[C@@H](CCc1ccccc1)C(=O)O)C(=O)N1CCC[C@H]1C(=O)O [Enalaprilat (dihydrate)]
remaining activity at 3.75 µM ([1]; Well no.=7842, high concentration screen): 97.1%
remaining activity at 1.25 µM ([2]; Well no.=7842, low concentration screen): 94.7%

COc1cc(/C=C/C(=O)CC(=O)/C=C/c2ccc(O)cc2)ccc1O [(1E,6E)-1-(4-hydroxy-3-methoxyphenyl)-7-(4-hydroxyphenyl)-1,6-heptadiene-3,5-dione]
remaining activity at 3.75 µM ([1]; Well no.=5795, high concentration screen): 95.2%
remaining activity at 1.25 µM ([2]; Well no.=5795, low concentration screen): 90.1%

COc1c(N2CCNC(C)C2)c(F)cc2c(=O)c(C(=O)O)cn(C3CC3)c12 (stereo not shown) [Gatifloxacin]
remaining activity at 3.75 µM ([1]; Well no.=2170, high concentration screen): 104%
remaining activity at 1.25 µM ([2]; Well no.=2170, low concentration screen): 103%

C[C@@]12C(=O)OC(=O)[C@]1(C)[C@H]1CC[C@@H]2O1 [Cantharidin]
remaining activity at 3.75 µM ([1]; Well no.=42, high concentration screen): 97.9%
remaining activity at 3.75 µM ([1]; Well no.=3129, high concentration screen): 108%
remaining activity at 1.25 µM ([2]; Well no.=42, low concentration screen): 94.6%
remaining activity at 1.25 µM ([2]; Well no.=3129, low concentration screen): 107%

C=CCc1ccc(O)c(-c2cc(CC=C)ccc2O)c1 [Magnolol]
remaining activity at 3.75 µM ([1]; Well no.=3659, high concentration screen): 98.1%
remaining activity at 1.25 µM ([2]; Well no.=3659, low concentration screen): 96.1%

CNC(=O)c1cc2c(cn1)[nH]c1ccccc12 [N-Methyl-beta-carboline-3-carboxamide]
remaining activity at 3.75 µM ([1]; Well no.=655, high concentration screen): 94.2%
remaining activity at 1.25 µM ([2]; Well no.=655, low concentration screen): 96.4%

C[C@H]1CN(C[C@H](Cc2ccccc2)C(=O)NCC(=O)O)CC[C@@]1(C)c1cccc(O)c1 [Alvimopan (dihydrate)]
remaining activity at 3.75 µM ([1]; Well no.=6559, high concentration screen): 101%
remaining activity at 1.25 µM ([2]; Well no.=6559, low concentration screen): 100%

CSC(=S)NCc1c[nH]c2ccccc12 [Brassinin]
remaining activity at 3.75 µM ([1]; Well no.=3801, high concentration screen): 101%
remaining activity at 1.25 µM ([2]; Well no.=3801, low concentration screen): 101%

CCCN(CCC)C1CCc2ccc(O)cc2C1 (racemic)
remaining activity at 3.75 µM ([1]; Well no.=662, high concentration screen): 94.8%
remaining activity at 1.25 µM ([2]; Well no.=662, low concentration screen): 94.1%

CCCCCCCCCCCCCCCCCC(=O)O [Stearic acid]
remaining activity at 3.75 µM ([1]; Well no.=6963, high concentration screen): 102%
remaining activity at 1.25 µM ([2]; Well no.=6963, low concentration screen): 98.8%

NCC1(CC(=O)O)CCCCC1 [Gabapentin]
remaining activity at 3.75 µM ([1]; Well no.=510, high concentration screen): 105%
remaining activity at 3.75 µM ([1]; Well no.=1755, high concentration screen): 100%
remaining activity at 1.25 µM ([2]; Well no.=510, low concentration screen): 104%
remaining activity at 1.25 µM ([2]; Well no.=1755, low concentration screen): 98.1%

CCCCC1CCC(c2nc(-c3ccncc3)no2)CC1 (stereo not shown) [PSN-375963]
remaining activity at 3.75 µM ([1]; Well no.=5398, high concentration screen): 106%
remaining activity at 1.25 µM ([2]; Well no.=5398, low concentration screen): 106%

CNS(=O)(=O)Cc1ccc2[nH]cc(CCN(C)C)c2c1 [Sumatriptan Succinate]
remaining activity at 3.75 µM ([1]; Well no.=2085, high concentration screen): 97.6%
remaining activity at 1.25 µM ([2]; Well no.=2085, low concentration screen): 96.9%

Cc1sc2c(c1C)C(c1ccc(Cl)cc1)=N[C@@H](CC(N)=O)c1nnc(C)n1-2 [CPI203]
remaining activity at 3.75 µM ([1]; Well no.=5824, high concentration screen): 98%
remaining activity at 1.25 µM ([2]; Well no.=5824, low concentration screen): 99.9%

COC[C@@H](c1ccc(C(F)(F)F)cc1)N1CCN(C2(C)CCN(C(=O)c3c(C)ncnc3C)CC2)C[C@@H]1C [Vicriviroc (maleate)]
remaining activity at 3.75 µM ([1]; Well no.=8655, high concentration screen): 103%
remaining activity at 1.25 µM ([2]; Well no.=8655, low concentration screen): 106%

N[C@@H]1CONC1=O [D-Cycloserine]
remaining activity at 3.75 µM ([1]; Well no.=78, high concentration screen): 102%
remaining activity at 1.25 µM ([2]; Well no.=78, low concentration screen): 100%

C[C@@]12N[C@@H](Cc3ccccc31)c1ccccc12 [(-)-MK-801 hydrogen maleate]
remaining activity at 3.75 µM ([1]; Well no.=799, high concentration screen): 99.2%
remaining activity at 1.25 µM ([2]; Well no.=799, low concentration screen): 101%

CCCCCCCC/C=C\CCCCCCCCCC(=O)O [11(Z)-Eicosenoic acid]
remaining activity at 3.75 µM ([1]; Well no.=4406, high concentration screen): 93.7%
remaining activity at 1.25 µM ([2]; Well no.=4406, low concentration screen): 96.4%

Cc1cccc([C@H](C)c2c[nH]cn2)c1C [Dexmedetomidine]
remaining activity at 3.75 µM ([1]; Well no.=5319, high concentration screen): 95.8%
remaining activity at 1.25 µM ([2]; Well no.=5319, low concentration screen): 94.4%

Cc1cc(COc2nc(N)nc3ccn(Cc4ccccn4)c23)no1 [TLR7 agonist 2]
remaining activity at 3.75 µM ([1]; Well no.=8227, high concentration screen): 103%
remaining activity at 1.25 µM ([2]; Well no.=8227, low concentration screen): 106%

CCCCCCCOc1cc2c(cc1/C(C)=C/c1ccc(C(=O)O)cc1)C(C)(C)CCS2(=O)=O [4-{(1E)-2-[7-(heptyloxy)-4,4-dimethyl-1,1-dioxido-3,4-dihydro-2H-thiochromen-6-yl]-1-propenyl}benzoic acid]
remaining activity at 3.75 µM ([1]; Well no.=5553, high concentration screen): 105%
remaining activity at 1.25 µM ([2]; Well no.=5553, low concentration screen): 103%

O=C(O)C1=C[C@@H](O)[C@@H](O)[C@H](O)C1 [Shikimic acid]
remaining activity at 3.75 µM ([1]; Well no.=3116, high concentration screen): 98.6%
remaining activity at 3.75 µM ([1]; Well no.=7209, high concentration screen): 102%
remaining activity at 1.25 µM ([2]; Well no.=3116, low concentration screen): 98.2%
remaining activity at 1.25 µM ([2]; Well no.=7209, low concentration screen): 104%

CC[N+](C)(C)Cc1ccccc1Br [Bretylium tosylate]
remaining activity at 3.75 µM ([1]; Well no.=321, high concentration screen): 101%
remaining activity at 1.25 µM ([2]; Well no.=321, low concentration screen): 103%

c1ccc(-c2ccc(C(c3ccccc3)n3ccnc3)cc2)cc1 (stereo not shown) [Bifonazole]
remaining activity at 3.75 µM ([1]; Well no.=2173, high concentration screen): 101%
remaining activity at 1.25 µM ([2]; Well no.=2173, low concentration screen): 99.6%

CCCCC/C=C\C/C=C\C/C=C\CCCCCCC(=O)O [8(Z), 11(Z), 14(Z)-Eicosatrienoic Acid]
remaining activity at 3.75 µM ([1]; Well no.=4548, high concentration screen): 96.4%
remaining activity at 1.25 µM ([2]; Well no.=4548, low concentration screen): 91.1%

Oc1ccc(-c2c(-c3ccccc3)nn3c(C(F)(F)F)cc(C(F)(F)F)nc23)cc1 [PHTPP]
remaining activity at 3.75 µM [1]: 101%
remaining activity at 1.25 µM [2]: 103%

CO[C@H]1[C@H](OC(=O)c2ccc(C)[nH]2)[C@H](O)[C@@H](Oc2ccc3c(O)c(NC(=O)c4c[nH]c(C(=O)Nc5c(O)c6ccc(O[C@H]7OC(C)(C)[C@@H](OC)[C@H](OC(=O)c8ccc(C)[nH]8)[C@@H]7O)c(C)c6oc5=O)c4C)c(=O)oc3c2C)OC1(C)C [Coumermycin A1]
remaining activity at 3.75 µM ([1]; Well no.=3175, high concentration screen): 104%
remaining activity at 1.25 µM ([2]; Well no.=3175, low concentration screen): 105%

CCn1cnc2c(Nc3cccc(Cl)c3)nc(N[C@@H]3CCCC[C@@H]3N)nc21 [CGP-74514A hydrochloride]
remaining activity at 3.75 µM ([1]; Well no.=268, high concentration screen): 94.1%
remaining activity at 1.25 µM ([2]; Well no.=268, low concentration screen): 92.8%

CCN1CCC[C@H]1CNC(=O)c1c(O)c(Cl)cc(Cl)c1OC [S(+)-Raclopride L-tartrate]
remaining activity at 3.75 µM ([1]; Well no.=1354, high concentration screen): 103%
remaining activity at 1.25 µM ([2]; Well no.=1354, low concentration screen): 104%

CN1CCN(c2c(F)cc3c(=O)c(C(=O)O)cn(CCF)c3c2F)CC1 [Fleroxacin]
remaining activity at 3.75 µM ([1]; Well no.=2120, high concentration screen): 96.3%
remaining activity at 1.25 µM ([2]; Well no.=2120, low concentration screen): 92.9%

O=C(O)c1cc(=O)c2c(Cl)cc(Cl)cc2[nH]1 [5,7-Dichlorokynurenic acid]
remaining activity at 3.75 µM ([1]; Well no.=546, high concentration screen): 97.5%
remaining activity at 1.25 µM ([2]; Well no.=546, low concentration screen): 95.2%
